Experimental data published in patent US20160166507A1, “NANOEMULSIONS OF HYDROPHOBIC PLATINUM DERIVATIVES” (NEMUCORE MEDICAL INNOVATIONS, INC., priority 2013, published 2016).

Key:
[1] = system: SKOV-3 Ovarian Cancer Cells; experiment: MTT cytotoxicity assay with combination index analysis; format: cell-based, human; conditions: for Degree of Combination Effect: Pt complex with CER
Description: In order to determine if the nanoemulsion formulations according to the disclosure produce a cytotoxic effect, the following experiments were done on SKOV3 cells.
A tetrazolium (MTT) assay was performed, which measures the activity of cellular enzymes that reduces the MTT dye to insoluble formazan. SKOV3 cells were treated with corresponding test nanoemulsions or control solutions as indicated below in Table VI. Polyethylenimine at 50 μg/ml was used as a positive control for cytotoxicity. The effect of cis-Pt in solution, nanoemulsion formulations, and EGFR-targeted nanoemulsion formulations of the disclosure on the viability of ovarian SKOV3 cells were studied and measured after 72 hr treatment. After the completion of treatment, cells were incubated with MTT reagent (50 μg/well) for 2 hr. The resulting formazan crystals were dissolved in dimethyl sulfoxide ([…]) and measured at 570 nm in the Plate reader (Synergy HT, Biotek Instruments, Winooski, Vt.).
Values are shown as mean±SD, n=8. All IC50 values were obtained by analyzing the MTT assays results using Graphpad Prism 5 scientific data analysis software.
The optimum concentration of multiple chemotherapeutic agents combined in the nanoemulsion formulations of the present disclosure can be determined by calculating the combination index from the dose response curves of the single agents (Chou (2006) Pharmacol. Rev. 58(3): 621-681). This method uses the isobologram equation below to determine combination index (CI): […]
where, “a” is the primary therapeutic IC50 in combination with secondary therapeutic at concentration “b.” “A” is the primary therapeutic IC50 without secondary therapeutic; and “B” is the secondary therapeutic IC50 in the absence of primary therapeutic. The CI represents the degree of interaction between two drugs regardless of mechanism. […]
For the nanoemulsion formulations of the present disclosure, the ratio of Pt:CER was determined in order to identify ratios that could reduce the IC50 of Pt.

[2] = system: SKOV3 human ovary cancer cells; experiment: In vivo therapeutic efficacy in mice injected ip with SKOV3 cells; set-up: species or system Nu/Nu female mice
Description: In order to determine if the nanoemulsion formulations according to the disclosure produce therapeutic efficacy against cancer in vivo, the following experiment was performed. Orthotropic tumors were developed in 30 Nu/Nu female mice, each weighing approximately 20 g (Charles River Laboratories, Cambridge, Mass.). The mice were injected intraperitoneally (ip) with 4×10^6 SKOV3 human ovary cancer cells (ATCC, Manassas, Va.) suspended in phosphate buffered saline100 μl PBS. The 30 mice were divided into 3 test groups of 10 individual mice. Each mouse was then dosed every 7 d for 5 wk with either nothing (control group) or 1 of 2 test compounds. The first test compound (cisplatin) was administered as a comparative sample in 5 mg/kg doses. The second test compound (EGFR-targeted nanoemulsion formulation containing Pt-MMA and ceramide in a 1:5 molar ratio) was administered in 3 cycles of 5 mg/kg platinum and an additional 2 cycles of 7.5 mg/kg platinum. The doses of Pt-MMA (21 mg/kg) and cis-Platin (5 mg/kg) were calculated so that animals received equivalent amounts of Pt. The survival time of each group of mice was determined and the median survival time (days) calculated using Graphpad Kaplan-Meyers survival analysis software on the basis of the observed survival time of each mouse.

[3] = cited from earlier work
[4] = dosed every 7 d for 5 wk, SKOV3, Nu/Nu mice

Compound: CCCCCCCCCCCCC/C=C/[C@H](O)[C@@H](CO)NC(=O)CCCCC [CER in Solution, C6-ceramide]
- IC50 ([1]; Homo sapiens, SK-OV-3, SKOV-3 cells, MTT, 72 hr treatment, mean±SD, n=8, read-out: IC50 (nM), inhibition of growth): 10000 nM

Compound: N.N.[Cl][Pt][Cl] [Cisplatin in Solution, Cis-dichlorodiammine Pt (II)]
- Median Survival ([2]; Kaplan-Meyers analysis, 10 mice per group): 28 days
- Average Tumor Size at 21 Days (mm^3) [2, 4]: 640 ± 314 mm^3
- Time for First Tumor to Reach 1000 mm^3 [2, 4]: 17 days

Compound: N.N.O=C([O-])C1(C(=O)[O-])CCC1.[Pt+2] [carboplatin]
- half life (published values) [3]: 50.4 min

Compound: cis-Diamine Pt (II) Chloride Monomyristic Acid [Cisplatin-mono-myristate]
- Degree of Combination Effect [1]: synergistically

Compound: cis-Diamine Pt (II) Chloride Monopalmitic Acid [Cisplatin-mono-palmitate]
- Degree of Combination Effect [1]: synergistically
